Laboratory results reported in patent US20240182531A1, “KV1.3 Blockers” (priority 2021, published 2024).
Where a SMILES comes first, the peptide text is derived from it. Bridges are numbered along the chain shown (N, C = ends). [ ]: non-standard residue; d: D form. Nle = CCCC[C@H](N)C(=O)O

How the values were obtained:
human Kv1.1 = biological target: T1, human Kv1.1 (Homo sapiens, UniProt Q09470); assay: cell-based; details: ratio of patch clamp IC50 values
T1 construct: expressed in transfected cells; host or cells: CHO

human Kv1.2 = biological target: T2, human Kv1.2 (Homo sapiens, UniProt P16389); assay: cell-based; details: ratio of patch clamp IC50 values
T2 construct: expressed in transfected cells; host or cells: CHO

human Kv1.6 = biological target: T3, human Kv1.6 (Homo sapiens, UniProt P17658); assay: cell-based; details: ratio of patch clamp IC50 values
T3 construct: expressed in transfected cells; host or cells: CHO

Rat whole blood = Rat whole blood (Rattus norvegicus, UniProt P15384); assay type: cell-based; details: IL-17A release, thapsigargin, 24 Hr, at least 2 replicates
Sequence of Rat whole blood (P15384 whole entry): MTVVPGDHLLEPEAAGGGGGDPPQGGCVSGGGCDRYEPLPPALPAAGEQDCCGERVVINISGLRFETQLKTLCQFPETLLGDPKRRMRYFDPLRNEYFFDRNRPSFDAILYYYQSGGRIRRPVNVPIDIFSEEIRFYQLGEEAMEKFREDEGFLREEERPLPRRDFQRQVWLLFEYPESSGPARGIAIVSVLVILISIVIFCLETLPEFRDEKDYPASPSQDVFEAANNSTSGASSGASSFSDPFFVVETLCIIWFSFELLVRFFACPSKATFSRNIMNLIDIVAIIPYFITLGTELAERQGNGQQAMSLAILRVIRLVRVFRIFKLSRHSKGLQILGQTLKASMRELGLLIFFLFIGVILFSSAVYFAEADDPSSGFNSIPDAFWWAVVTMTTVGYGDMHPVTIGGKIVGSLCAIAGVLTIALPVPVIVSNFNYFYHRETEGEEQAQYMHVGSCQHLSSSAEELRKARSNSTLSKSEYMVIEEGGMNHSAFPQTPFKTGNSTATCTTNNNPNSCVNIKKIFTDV

T3 sequence (P17658 whole entry): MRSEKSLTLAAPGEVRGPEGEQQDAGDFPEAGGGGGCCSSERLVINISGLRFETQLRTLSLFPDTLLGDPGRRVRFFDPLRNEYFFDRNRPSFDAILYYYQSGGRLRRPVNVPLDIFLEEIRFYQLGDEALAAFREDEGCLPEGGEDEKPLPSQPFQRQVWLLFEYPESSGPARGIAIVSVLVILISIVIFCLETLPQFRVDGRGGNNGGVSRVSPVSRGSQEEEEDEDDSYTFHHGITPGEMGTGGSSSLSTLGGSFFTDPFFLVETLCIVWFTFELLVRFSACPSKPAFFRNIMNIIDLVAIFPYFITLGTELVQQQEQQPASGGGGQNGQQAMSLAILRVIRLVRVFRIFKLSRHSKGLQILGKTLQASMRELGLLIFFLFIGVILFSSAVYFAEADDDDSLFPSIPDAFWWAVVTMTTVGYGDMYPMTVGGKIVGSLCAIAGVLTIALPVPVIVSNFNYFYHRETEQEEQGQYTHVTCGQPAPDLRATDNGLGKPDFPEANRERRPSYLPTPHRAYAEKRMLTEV
T1 sequence (Q09470 whole entry): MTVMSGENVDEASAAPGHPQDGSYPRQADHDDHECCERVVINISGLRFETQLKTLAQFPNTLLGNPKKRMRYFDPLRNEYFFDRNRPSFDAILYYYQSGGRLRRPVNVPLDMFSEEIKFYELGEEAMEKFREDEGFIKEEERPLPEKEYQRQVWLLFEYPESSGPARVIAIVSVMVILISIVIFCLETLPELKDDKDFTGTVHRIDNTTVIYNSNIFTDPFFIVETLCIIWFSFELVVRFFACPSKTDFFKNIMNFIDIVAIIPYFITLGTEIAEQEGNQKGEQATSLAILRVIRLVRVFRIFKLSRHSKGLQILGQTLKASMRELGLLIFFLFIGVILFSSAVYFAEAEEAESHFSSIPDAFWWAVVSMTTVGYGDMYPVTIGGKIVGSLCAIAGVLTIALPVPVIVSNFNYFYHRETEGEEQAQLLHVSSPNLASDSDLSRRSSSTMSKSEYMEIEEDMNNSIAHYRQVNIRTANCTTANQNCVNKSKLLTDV
T2 sequence (P16389 whole entry): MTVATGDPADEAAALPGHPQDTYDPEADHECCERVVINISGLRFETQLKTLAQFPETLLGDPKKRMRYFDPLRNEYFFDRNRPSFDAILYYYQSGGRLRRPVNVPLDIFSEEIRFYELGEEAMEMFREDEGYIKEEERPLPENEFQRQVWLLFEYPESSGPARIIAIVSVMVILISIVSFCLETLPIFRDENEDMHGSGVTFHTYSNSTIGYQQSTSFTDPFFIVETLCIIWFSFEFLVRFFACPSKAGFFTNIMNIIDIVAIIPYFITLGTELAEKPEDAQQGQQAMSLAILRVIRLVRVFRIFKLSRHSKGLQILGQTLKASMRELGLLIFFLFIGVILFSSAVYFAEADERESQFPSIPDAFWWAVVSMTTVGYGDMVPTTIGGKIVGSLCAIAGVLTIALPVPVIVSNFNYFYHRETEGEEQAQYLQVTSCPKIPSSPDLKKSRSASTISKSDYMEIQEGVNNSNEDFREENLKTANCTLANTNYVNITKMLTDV

SMILES | Selectivity ratio Kv1.1/Kv1.3 (human Kv1.1) | Selectivity ratio Kv1.2/Kv1.3 (human Kv1.2) | Selectivity ratio Kv1.6/Kv1.3 (human Kv1.6) | IC50 (Rat whole blood) [nM]
CC[C@H](C)[C@@H]1NC(=O)[C@H](C)NC(=O)[C@H](CCCCN)NC(=O)[C@H](CC(C)C)NC(=O)[C@@H]2CSSC[C@@H](C(=O)N[C@@H](Cc3ccc(O)cc3)C(=O)N3CCC[C@H]3C(=O)N[C@@H](CCCNC(=N)N)C(N)=O)NC(=O)[C@H](CCCCN)NC(=O)[C@@H]3CSSC[C@H](NC(=O)[C@H](CCC(=O)O)NC(=O)[C@H](C(C)C)NC(=O)[C@H](CO)NC(=O)[C@H](C)NC(=O)[C@H](CO)NC(=O)[C@@H](NC(=O)[C@H](CCCNC(=N)N)NC(=O)[C@H](CCSC)NC(=O)[C@H](CC(=O)O)NC(=O)[C@H](CCSC)NC(=O)[C@@H](N)CC(N)=O)CSSC[C@H](NC(=O)[C@H](CCCCN)NC(=O)CNC(=O)[C@H](Cc4ccccc4)NC(=O)[C@H]([C@@H](C)CC)NC(=O)[C@H](CO)NC(=O)CNC1=O)C(=O)N[C@@H](CCSC)C(=O)N[C@@H](CC(N)=O)C(=O)N[C@@H](CCCCN)C(=O)N[C@@H](CCCCN)C(=O)N3)C(=O)N[C@@H](CCCCN)C(=O)N[C@@H](CCC(N)=O)C(=O)N[C@@H](CC(C)C)C(=O)N2 [compound 23] (H-NMDMRCSASVECKQLCLKAIGSIFGKCMNKKCKCYPR-NH2; disulfide 6-27, 12-32, 16-34) | >12700 | 1080 | >12700 | 3.2
CC[C@H](C)[C@@H]1NC(=O)[C@H](C)NC(=O)[C@H](CCCCN)NC(=O)[C@H](CCCCN)NC(=O)[C@@H]2CSSC[C@@H](C(=O)N[C@@H](Cc3ccc(O)cc3)C(=O)N3CCC[C@H]3C(=O)N[C@@H](CCCNC(=N)N)C(N)=O)NC(=O)[C@H](CCCCN)NC(=O)[C@@H]3CSSC[C@H](NC(=O)[C@H](CCC(=O)O)NC(=O)[C@H](C(C)C)NC(=O)[C@H](CO)NC(=O)[C@H](C)NC(=O)[C@H](CO)NC(=O)[C@@H](NC(=O)[C@H](CCCNC(=N)N)NC(=O)[C@H](CCSC)NC(=O)[C@H](CC(=O)O)NC(=O)[C@H](CCSC)NC(=O)[C@@H](N)CC(N)=O)CSSC[C@H](NC(=O)[C@H](CCCCN)NC(=O)CNC(=O)[C@H](Cc4ccccc4)NC(=O)[C@H]([C@@H](C)CC)NC(=O)[C@H](CO)NC(=O)CNC1=O)C(=O)N[C@@H](CCSC)C(=O)N[C@@H](CC(N)=O)C(=O)N[C@@H](CCCCN)C(=O)N[C@@H](CCCCN)C(=O)N3)C(=O)N[C@@H](CCCCN)C(=O)N[C@@H](CCC(N)=O)C(=O)N[C@@H](CCCCN)C(=O)N2 [compound 24] (H-NMDMRCSASVECKQKCKKAIGSIFGKCMNKKCKCYPR-NH2; disulfide 6-27, 12-32, 16-34) | >13500 | 202 | 1955 | 0.56
CC[C@H](C)[C@@H]1NC(=O)[C@H](C)NC(=O)[C@H](CCCCN)NC(=O)[C@H](CC(C)C)NC(=O)[C@@H]2CSSC[C@@H](C(=O)N[C@@H](Cc3ccc(O)cc3)C(=O)N3CCC[C@H]3C(=O)N[C@@H](CCCNC(=N)N)C(N)=O)NC(=O)[C@H](CCCCN)NC(=O)[C@@H]3CSSC[C@H](NC(=O)[C@H](CCC(=O)O)NC(=O)[C@H](C(C)C)NC(=O)[C@H](CO)NC(=O)[C@H](C)NC(=O)[C@H](CO)NC(=O)[C@@H](NC(=O)[C@H](CCCNC(=N)N)NC(=O)[C@H](CCSC)NC(=O)[C@H](CC(=O)O)NC(=O)[C@H](CCSC)NC(=O)[C@@H](N)CC(N)=O)CSSC[C@H](NC(=O)[C@H](CCCCN)NC(=O)CNC(=O)[C@H](Cc4ccccc4)NC(=O)[C@H]([C@@H](C)CC)NC(=O)[C@H](CO)NC(=O)[C@H](CCCNC(=N)N)NC1=O)C(=O)N[C@@H](CCSC)C(=O)N[C@@H](CC(N)=O)C(=O)N[C@@H](CCCCN)C(=O)N[C@@H](CCCCN)C(=O)N3)C(=O)N[C@@H](CCCCN)C(=O)N[C@@H](CCC(N)=O)C(=O)N[C@@H](CCCCN)C(=O)N2 [compound 26] (H-NMDMRCSASVECKQKCLKAIRSIFGKCMNKKCKCYPR-NH2; disulfide 6-27, 12-32, 16-34) | >13700 | 259 | 2851 | 0.82
CC[C@H](C)[C@@H]1NC(=O)[C@H](C)NC(=O)[C@H](CCCCN)NC(=O)[C@H](CC(C)C)NC(=O)[C@@H]2CSSC[C@@H](C(=O)N[C@@H](Cc3ccc(O)cc3)C(=O)N3CCC[C@H]3C(=O)N[C@@H](CCCNC(=N)N)C(N)=O)NC(=O)[C@H](CCCCN)NC(=O)[C@@H]3CSSC[C@H](NC(=O)[C@H](CCC(=O)O)NC(=O)[C@H](C(C)C)NC(=O)[C@H](CO)NC(=O)[C@H](C)NC(=O)[C@H](CO)NC(=O)[C@@H](NC(=O)[C@H](CCCNC(=N)N)NC(=O)[C@H](CCSC)NC(=O)[C@H](CC(=O)O)NC(=O)[C@H](CCSC)NC(=O)[C@@H](N)CC(N)=O)CSSC[C@H](NC(=O)[C@H](CCCCN)NC(=O)CNC(=O)[C@H](Cc4ccccc4)NC(=O)[C@H]([C@@H](C)CC)NC(=O)[C@H](CO)NC(=O)[C@H](CCC(=O)O)NC1=O)C(=O)N[C@@H](CCSC)C(=O)N[C@@H](CC(N)=O)C(=O)N[C@@H](CCCCN)C(=O)N[C@@H](CCCCN)C(=O)N3)C(=O)N[C@@H](CCCCN)C(=O)N[C@@H](CCC(N)=O)C(=O)N[C@@H](CCCCN)C(=O)N2 [compound 27] (H-NMDMRCSASVECKQKCLKAIESIFGKCMNKKCKCYPR-NH2; disulfide 6-27, 12-32, 16-34) | >10200 | 615 | >10200 | 2.8
CC[C@H](C)[C@@H]1NC(=O)[C@H](CCCNC(=N)N)NC(=O)[C@H](CCCCN)NC(=O)[C@H](CC(C)C)NC(=O)[C@@H]2CSSC[C@@H](C(=O)N[C@@H](Cc3ccc(O)cc3)C(=O)N3CCC[C@H]3C(=O)N[C@@H](CCCNC(=N)N)C(N)=O)NC(=O)[C@H](CCCCN)NC(=O)[C@@H]3CSSC[C@H](NC(=O)[C@H](CCC(=O)O)NC(=O)[C@H](C(C)C)NC(=O)[C@H](CO)NC(=O)[C@H](C)NC(=O)[C@H](CO)NC(=O)[C@@H](NC(=O)[C@H](CCCNC(=N)N)NC(=O)[C@H](CCSC)NC(=O)[C@H](CC(=O)O)NC(=O)[C@H](CCSC)NC(=O)[C@@H](N)CC(N)=O)CSSC[C@H](NC(=O)[C@H](CCCCN)NC(=O)CNC(=O)[C@H](Cc4ccccc4)NC(=O)[C@H]([C@@H](C)CC)NC(=O)[C@H](CO)NC(=O)CNC1=O)C(=O)N[C@@H](CCSC)C(=O)N[C@@H](CC(N)=O)C(=O)N[C@@H](CCCCN)C(=O)N[C@@H](CCCCN)C(=O)N3)C(=O)N[C@@H](CCCCN)C(=O)N[C@@H](CCC(N)=O)C(=O)N[C@@H](CCCCN)C(=O)N2 [compound 60] (H-NMDMRCSASVECKQKCLKRIGSIFGKCMNKKCKCYPR-NH2; disulfide 6-27, 12-32, 16-34) | >9900 | 187 | 3062 | 
CC[C@H](C)[C@@H]1NC(=O)[C@H](CO)NC(=O)CNC(=O)[C@H](Cc2ccc(O)cc2)NC(=O)[C@H](C)NC(=O)[C@H](CCCCN)NC(=O)[C@H](CC(C)C)NC(=O)[C@@H]2CSSC[C@@H](C(=O)N[C@@H](Cc3ccc(O)cc3)C(=O)N3CCC[C@H]3C(=O)N[C@@H](CCCNC(=N)N)C(N)=O)NC(=O)[C@H](CCCCN)NC(=O)[C@@H]3CSSC[C@H](NC(=O)[C@H](CCC(=O)O)NC(=O)[C@H](C(C)C)NC(=O)[C@H](CO)NC(=O)[C@H](C)NC(=O)[C@H](CO)NC(=O)[C@@H](NC(=O)[C@H](CCCNC(=N)N)NC(=O)[C@H](CCSC)NC(=O)[C@H](CC(=O)O)NC(=O)[C@H](CCSC)NC(=O)[C@@H](N)CC(N)=O)CSSC[C@H](NC(=O)[C@H](CCCCN)NC(=O)CNC(=O)[C@H](Cc4ccccc4)NC1=O)C(=O)N[C@@H](CCSC)C(=O)N[C@@H](CC(N)=O)C(=O)N[C@@H](CCCCN)C(=O)N[C@@H](CCCCN)C(=O)N3)C(=O)N[C@@H](CCCCN)C(=O)N[C@@H](CCC(N)=O)C(=O)N[C@@H](CCCCN)C(=O)N2 [compound 61] (H-NMDMRCSASVECKQKCLKAYGSIFGKCMNKKCKCYPR-NH2; disulfide 6-27, 12-32, 16-34) | >8800 | 426 | >8800 | 
CCCC[C@H](NC(=O)[C@H](CC(=O)O)NC(=O)[C@H](CCCC)NC(=O)[C@@H](N)CO)C(=O)N[C@@H](CCCNC(=N)N)C(=O)N[C@H]1CSSC[C@@H]2NC(=O)[C@H](CCCCN)NC(=O)CNC(=O)[C@H](Cc3ccccc3)NC(=O)[C@H]([C@@H](C)CC)NC(=O)[C@H](CO)NC(=O)CNC(=O)[C@H]([C@@H](C)CC)NC(=O)[C@H](C)NC(=O)[C@H](CCCCN)NC(=O)[C@H](CC(C)C)NC(=O)[C@@H]3CSSC[C@@H](C(=O)N[C@@H](Cc4ccc(O)cc4)C(=O)N4CCC[C@H]4C(=O)N[C@@H](CCCNC(=N)N)C(N)=O)NC(=O)[C@H](CCCCN)NC(=O)[C@H](CSSC[C@H](NC(=O)[C@H](CCC(=O)O)NC(=O)[C@H](C(C)C)NC(=O)[C@H](CO)NC(=O)[C@H](C)NC(=O)[C@H](CO)NC1=O)C(=O)N[C@@H](C)C(=O)N[C@@H](CCC(N)=O)C(=O)N[C@@H](CO)C(=O)N3)NC(=O)[C@H](CCCCN)NC(=O)[C@H](CCCCN)NC(=O)[C@H](CC(N)=O)NC(=O)[C@H](CCSC)NC2=O [compound 78] (H-S[Nle]D[Nle]RCSASVECAQSCLKAIGSIFGKCMNKKCKCYPR-NH2; disulfide 6-27, 12-32, 16-34) | >14600 | 5596 | >14600 | 
